Assay results: ChEMBL document CHEMBL4765277, “Design, synthesis and biological evaluation of novel indazole-based derivatives as potent HDAC inhibitors via fragment-based virtual screening” (Eur J Med Chem, 2020)

Columns and labels:
Histone deacetylase 2 = Histone deacetylase 2 (Homo sapiens, UniProt Q92769); assay: Inhibition of recombinant human C-terminal His-tagged HDAC2 (1 to end residues) expressed in sf9 insect cells using Boc-Lys(Ac)-AMC as substrate incubated for 60 mins by fluorescence assay
Chain of Histone deacetylase 2 (Q92769 whole entry): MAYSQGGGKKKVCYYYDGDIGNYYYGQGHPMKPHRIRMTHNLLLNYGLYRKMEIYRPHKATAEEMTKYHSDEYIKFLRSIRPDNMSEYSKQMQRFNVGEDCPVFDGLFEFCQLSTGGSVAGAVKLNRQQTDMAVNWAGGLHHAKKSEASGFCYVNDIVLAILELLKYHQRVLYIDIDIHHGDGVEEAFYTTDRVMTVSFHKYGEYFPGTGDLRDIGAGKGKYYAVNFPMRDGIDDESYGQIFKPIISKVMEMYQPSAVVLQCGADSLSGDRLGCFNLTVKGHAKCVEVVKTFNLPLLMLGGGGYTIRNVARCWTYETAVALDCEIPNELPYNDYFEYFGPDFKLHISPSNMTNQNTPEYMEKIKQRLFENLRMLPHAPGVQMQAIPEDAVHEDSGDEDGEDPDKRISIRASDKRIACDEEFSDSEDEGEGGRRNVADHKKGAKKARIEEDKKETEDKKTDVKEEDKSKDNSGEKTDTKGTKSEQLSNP

HCT-116 = assay: Antiproliferative activity against human HCT-116 cells assessed as reduction in cell viability after 72 hrs by MTT assay; format: functional, cell-based; details: HCT-116, 72 h
MCF7 = assay: cells; details: Homo sapiens, MCF7, 72 h
Description: Antiproliferative activity against human MCF7 cells assessed as reduction in cell viability after 72 hrs by MTT assay

Histone deacetylase 8 = target: T1, Histone deacetylase 8 (Homo sapiens, UniProt Q9BY41); assay: Inhibition of recombinant human full length C-terminal His-tagged HDAC8 expressed in sf9 insect cells using Boc-Lys(TFA)-AM as substrate incubated for 60 mins by fluorescence assay
T1 sequence (Q9BY41 whole entry): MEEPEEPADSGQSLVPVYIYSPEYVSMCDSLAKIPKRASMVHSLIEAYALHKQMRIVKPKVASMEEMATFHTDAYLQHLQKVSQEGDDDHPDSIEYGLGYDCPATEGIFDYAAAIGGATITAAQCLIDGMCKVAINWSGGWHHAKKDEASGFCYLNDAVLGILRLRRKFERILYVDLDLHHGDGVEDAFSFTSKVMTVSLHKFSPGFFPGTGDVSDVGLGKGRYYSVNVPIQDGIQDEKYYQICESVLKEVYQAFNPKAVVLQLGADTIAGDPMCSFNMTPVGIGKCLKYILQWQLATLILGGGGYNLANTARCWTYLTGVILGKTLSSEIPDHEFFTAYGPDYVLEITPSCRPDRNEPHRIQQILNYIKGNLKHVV

HeLa = assay: cells; format: functional, cell-based; details: Homo sapiens, 72 h
Description: Antiproliferative activity against human HeLa cells assessed as reduction in cell viability after 72 hrs by MTT assay

Histone deacetylase 1 = Histone deacetylase 1 (Homo sapiens, UniProt Q13547); assay: Inhibition of recombinant human C-terminal His/FLAG-tagged HDAC1 (1 to end residues) expressed in sf9 insect cells using Boc-Lys(Ac)-AMC as substrate incubated for 60 mins by fluorescence assay
Chain of Histone deacetylase 1 (Q13547 whole entry): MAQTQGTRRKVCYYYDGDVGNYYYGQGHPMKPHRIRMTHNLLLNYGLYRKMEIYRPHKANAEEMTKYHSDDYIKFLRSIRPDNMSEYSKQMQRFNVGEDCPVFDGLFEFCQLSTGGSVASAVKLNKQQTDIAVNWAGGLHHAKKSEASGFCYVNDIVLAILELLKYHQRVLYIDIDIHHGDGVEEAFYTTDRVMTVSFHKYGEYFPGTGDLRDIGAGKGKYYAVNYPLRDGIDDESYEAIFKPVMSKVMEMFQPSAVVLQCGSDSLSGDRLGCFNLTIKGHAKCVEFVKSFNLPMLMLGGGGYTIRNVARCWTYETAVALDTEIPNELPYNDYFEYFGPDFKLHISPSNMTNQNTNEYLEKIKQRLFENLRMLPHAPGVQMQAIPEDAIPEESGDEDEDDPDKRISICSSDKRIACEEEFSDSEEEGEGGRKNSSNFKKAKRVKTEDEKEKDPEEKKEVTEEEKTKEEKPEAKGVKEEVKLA

Row | SMILES | IC50 (Histone deacetylase 2) | IC50 (HCT-116) | IC50 (MCF7) | IC50 (Histone deacetylase 8) | IC50 (HeLa) | IC50 (Histone deacetylase 1)
1 | COc1cccc(-c2ccc3c(NC(=O)CCCCC(=O)NO)n[nH]c3c2)c1 | 62 nM | 23500 nM | 4400 nM | 41 nM | 5800 nM | 13 nM
2 | O=C(CCCCCCC(=O)Nc1n[nH]c2cc(-c3cccc(C(F)(F)F)c3)ccc12)NO | 5 nM | 2900 nM | 47300 nM | 4.1 nM | 6000 nM | 2.5 nM
3 | O=C(CCCCCCC(=O)Nc1n[nH]c2cc(-c3cccc(Cl)c3)ccc12)NO | 4 nM | 41800 nM | 27500 nM | 3.8 nM | 200 nM | 3.7 nM
4 | O=C(CCCCCCC(=O)Nc1n[nH]c2cc(-c3ccsc3)ccc12)NO | 31.6 nM | 7500 nM | 8300 nM | 32.5 nM | 29500 nM | 36.2 nM
5 | COc1ccc(F)c(-c2ccc3c(NC(=O)CCCCCCC(=O)NO)n[nH]c3c2)c1 | 3.5 nM | 7500 nM | 4900 nM | 4.9 nM | 3300 nM | 3 nM
6 | O=C(CCCCCCC(=O)Nc1n[nH]c2cc(-c3ccccc3)ccc12)NO | 13.1 nM | 10200 nM | 5500 nM | 12.6 nM | 12500 nM | 9.6 nM
7 | CCOc1cccc(-c2ccc3c(NC(=O)CCCCCCC(=O)NO)n[nH]c3c2)c1 | 4.2 nM | 4200 nM | 2400 nM | 3.4 nM | 10800 nM | 2.1 nM
8 | COc1cccc(-c2ccc3c(NC(=O)CCCCCCC(=O)NO)n[nH]c3n2)c1 | 5.3 nM | 2700 nM | 8600 nM | 3.3 nM | 3600 nM | 2.4 nM
9 | COc1ccccc1-c1ccc2c(NC(=O)CCCCCCC(=O)NO)n[nH]c2c1 | 5.4 nM | 2700 nM | 5700 nM | 4.2 nM | 5900 nM | 4.6 nM
10 | O=C(CCCCCCC(=O)Nc1n[nH]c2cc(-c3ccncc3)ccc12)NO | 25.9 nM | 12300 nM | 40100 nM | 24.5 nM | 6900 nM | 23 nM
11 | COc1cc(OC)cc(-c2ccc3c(NC(=O)CCCCCCC(=O)NO)n[nH]c3c2)c1 | 4.8 nM | 9500 nM | 55200 nM | 4.4 nM | 7300 nM | 4.6 nM
